Assay results from patent US20110218103A1, “Fluoroalkyl-substituted 2-amidobenzimidazoles” (BAYER CROPSCIENCE AG, priority 2010, published 2011).

Columns and labels:
[1] = test system: Zea mays (ZEAMX); assay: Cold stress test on crop plants, spray application in greenhouse, visual damage rating; assay type: in vivo; conditions: mean of three results
Method: Seeds of monocotyledonous and dicotyledonous crop plants were placed in sandy loam in wood-fiber pots, covered with soil and cultivated in a greenhouse under good growth conditions. The test plants were treated at the early leaf stage (BBCH10-BBCH13). To ensure uniform water supply before commencement of stress, the potted plants were supplied with the maximum amount of water immediately beforehand by dam irrigation and, after application, transferred in plastic inserts in order to prevent subsequent, excessively rapid drying. The inventive compounds, formulated in the form of wettable powders (WP), wettable granules (WG), suspension concentrates (SC) or emulsion concentrates (EC), were sprayed onto the green parts of the plants as an aqueous suspension at an equivalent water application rate of 600 l/ha with addition of 0.2% wetting agent (agrotin). Substance application was followed immediately by stress treatment of the plants (cold or drought stress). For cold stress treatment, the plants were kept under the following controlled conditions: “day”: 12 hours with illumination at 8° C. “night”: 12 hours without illumination at 1° C. The duration of the respective stress phases was guided mainly by the state of the untreated, stressed control plants and thus varies from crop to crop. It was ended (by re-irrigating or transfer to a greenhouse with good growth conditions) as soon as irreversible damage is observed on the untreated, stressed control plants. In the case of dicotyledonous crops, for example oilseed rape and soya, the duration of the drought stress phase was between 3 and 5 days, in the case of monocotyledonous crops, for example wheat, barley or corn, between 6 and 10 days. The duration of the cold stress phase varied between 12 and 14 days. The end of the stress phase was followed by an approx. 5-7-day recovery phase, during which the plants were once again kept under good growth conditions in a greenhouse. […] The intensity of damage was first assessed as a percentage (100%=plants have died, 0%=like control plants). […]

[2] = test system: Zea mays (ZEAMX); assay: Drought stress test on crop plants, spray application in greenhouse, visual damage rating; assay type: in vivo; conditions: 25 g/ha, mean of three results
Method: Seeds of monocotyledonous and dicotyledonous crop plants were placed in sandy loam in wood-fiber pots, covered with soil and cultivated in a greenhouse under good growth conditions. The test plants were treated at the early leaf stage (BBCH10-BBCH13). To ensure uniform water supply before commencement of stress, the potted plants were supplied with the maximum amount of water immediately beforehand by dam irrigation and, after application, transferred in plastic inserts in order to prevent subsequent, excessively rapid drying. The inventive compounds, formulated in the form of wettable powders (WP), wettable granules (WG), suspension concentrates (SC) or emulsion concentrates (EC), were sprayed onto the green parts of the plants as an aqueous suspension at an equivalent water application rate of 600 l/ha with addition of 0.2% wetting agent (agrotin). Substance application was followed immediately by stress treatment of the plants (cold or drought stress). For cold stress treatment, the plants were kept under the following controlled conditions: Drought stress was induced by gradual drying out under the following conditions: “day”: 14 hours with illumination at 26° C. “night”: 10 hours without illumination at 18° C. The duration of the respective stress phases was guided mainly by the state of the untreated, stressed control plants and thus varies from crop to crop. It was ended (by re-irrigating or transfer to a greenhouse with good growth conditions) as soon as irreversible damage is observed on the untreated, stressed control plants. In the case of dicotyledonous crops, for example oilseed rape and soya, the duration of the drought stress phase was between 3 and 5 days, in the case of monocotyledonous crops, for example wheat, barley or corn, between 6 and 10 days. The duration of the cold stress phase varied between 12 and 14 days. The end of the stress phase was followed by an approx. 5-7-day recovery phase, during which the plants were once again kept under good growth conditions in a greenhouse. In order to rule out any influence of the effects observed by any fungicidal action of the test compounds, it was additionally ensured that the tests proceed without fungal infection and without infection pressure. After the recovery phase had ended, the intensities of damage were rated visually compared to untreated, unstressed controls of the same age (in the case of drought stress) or the same growth stage (in the case of cold stress). The intensity of damage was first assessed as a percentage (100%=plants have died, 0%=like control plants). These values were then used to calculate the efficacy of the test compounds (=percentage reduction in the intensity of damage as a result of substance application) by the following formula: [formula] EF: efficacy (%) DVus: damage value of the untreated, stressed control DVts: damage value of the plants treated with test compound The tables below list mean values in each case from three results of the same test. Effects of selected compounds of the formula (I) under drought stress: ZEAMX=Zea mays

Structure (SMILES) | EF (ZEAMX), efficacy = percentage reduction in the intensity of damage ([1]; 5 g/ha) [%] | EF (ZEAMX), efficacy = percentage reduction in the intensity of damage [2] [%] | EF (ZEAMX), efficacy = percentage reduction in the intensity of damage ([1]; 25 g/ha) [%]
NC(=O)c1cccc2[nH]c(C(F)(F)C(F)(F)F)nc12 [1-2, 2-(pentafluoroethyl)-1H-benzimidazole-4-carboxamide] | >5 | >5 | –
NC(=O)c1cccc2[nH]c(C(F)(F)C(F)(F)C(F)(F)F)nc12 [1-17] | – | >5 | >5
